Series [1] in a line: Brain tissue distribution study in Sprague-Dawley rat (IV cassette). It is filed as in vivo. The following applies: male, IV cassette 0.2 mg/kg per compound, 0.25 h post-dose; for Kp uu at 0.25 h: brain/plasma (unbound), unbound distribution partition coefficient; for Kp at 0.25 h: brain/plasma, distribution partition coefficient.
Experimental: The plasma protein and nonspecific brain homogenate binding of certain compounds were determined in plasma or brain homogenate using contemporary equilibrium dialysis and employing HTDialysis™ Teflon dialysis chambers and cellulose membranes (MWCO 12-14 K) from HTDialysis (Gales Ferry, Conn.). Brain tissue homogenate was prepared by diluting one volume whole brain tissue with three volumes of phosphate buffer (pH 7.4). The mixture was then subjected to mechanical homogenation employing a Mini-Beadbeater™ and 1.0 mm Zirconia/Silica Beads from BioSpec Products (Bartlesville, Okla.). Plasma or brain homogenate was fortified with test article and mixed thoroughly for a final concentration of 5 μM for plasma and 1 μM for brain homogenate. Subsequently, 100 μL of the plasma- or brain homogenate-compound mixture was transferred to one side of a dialysis chamber with an accompanying 100 μL of phosphate buffer (pH 7.4) in the opposite side of the chamber. The plate block was sealed and incubated for 6 hours (37° C.) with shaking. Upon completion, aliquots from each chamber were matrix-matched with either plasma or brain homogenate (1:1, buffer side) or buffer (1:1, plasma or brain homogenate side) in a new 96-well plate, at which time the proteins and cell debris/membranes (for brain homogenate) were precipitated with ice-cold acetonitrile containing an internal standard (carbamazepine, 50 nM). The plate was centrifuged (3000 rcf, 10 min) and supernatants diluted (1:1, v/v) via transfer into a fresh 96-well plate containing deionized H2O; the plate was sealed in preparation for LC/MS/MS bioanalysis. The assay was performed in triplicate for each compound.
A cassette of compounds (n=5/cassette) were formulated from 10 mmol L^−1 solutions prepared in DMSO. In order to reduce the absolute volume of DMSO that was administered, the compounds were combined and diluted with ethanol and PEG 400 to achieve a final concentration of 0.4 mg mL^−1 for each compound (2 mg mL^−1 total) administered in each cassette; the maximal dosing volume was 0.5 mL kg^−1 of each animal's body mass. The final dosing solutions consisted of approximately 10% ethanol, 40% PEG400, and 50% DMSO (v/v). Each cassette dose was administered IV via the jugular vein to one dual-cannulated (carotid artery and jugular vein) adult male Sprague-Dawley rat, each weighing between 250 and 350 g (Harlan, Indianapolis, Ind.) for a final dose of 0.2 mg kg^−1 per compound. Whole blood and dissected whole brains were collected at the time of euthanization (0.25 h post-dose), with the whole brain being removed and thoroughly rinsed with cold phosphate-buffered saline prior to freezing on dry ice. […]
The target of another series is T1, human mAChR M1 (Homo sapiens, UniProt P11229).
T1 construct: host or cells: CHO-K1
T1 sequence (P11229 1-460): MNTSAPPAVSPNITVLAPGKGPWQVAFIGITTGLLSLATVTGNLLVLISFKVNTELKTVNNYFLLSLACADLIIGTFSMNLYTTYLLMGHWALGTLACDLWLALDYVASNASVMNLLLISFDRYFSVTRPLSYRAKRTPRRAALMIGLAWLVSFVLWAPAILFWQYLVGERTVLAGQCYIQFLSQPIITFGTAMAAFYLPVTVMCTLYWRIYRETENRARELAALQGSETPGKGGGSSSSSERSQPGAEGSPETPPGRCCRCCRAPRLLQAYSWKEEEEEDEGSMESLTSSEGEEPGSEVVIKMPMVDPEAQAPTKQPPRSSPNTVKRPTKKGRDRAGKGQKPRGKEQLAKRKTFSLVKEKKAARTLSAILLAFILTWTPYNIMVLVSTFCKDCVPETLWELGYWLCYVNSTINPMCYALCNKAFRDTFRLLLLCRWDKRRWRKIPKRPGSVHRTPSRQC
The experiment in a line: mAChR M1 cell-based functional assay (calcium mobilization, Fluo-4, FDSS). The following applies: CHO-K1 cells stably expressing hM1; for Emax: EC20 acetylcholine response, read-out: Human M1 Emax; for EC50: positive allosteric modulator activity as increase in the EC20 acetylcholine response. A digest of the protocol:
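CHO-K1 cells stably expressing muscarinic receptor, loaded with Fluo-4; 11-point 1:3 compound series added and calcium flux read over 300 s at 1 Hz. Agonism from direct calcium rise, PAM activity as potentiation of EC20 acetylcholine, antagonism as decrease of EC80 acetylcholine; four-parameter logistic fits.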
In general terms: A change in cytosolic calcium serves as a functional read-out for many receptors and channels.

For a further series, the system named is C57Bl/6 mice. In words: Behavioral manifestations of seizure activity (modified Racine scoring). The format is in vivo. Particulars: 100 mg/kg i.p., monitored up to 3 hr for seizure behavior. How it is done:
To evaluate induction of behavioral manifestation of seizure activity, C57Bl/6 mice received administration of vehicle or 100 mg/kg M1 PAM. Compounds were formulated in 10% Tween 80 (pH 7.0) at a concentration of 10 mg/ml and injected i.p. (n=3). Animals were monitored continuously and scored for behavioral manifestations of seizure activity at 5, 10, 15 and 30 min, and 1 and 3 hr. Behavioral manifestations of seizures were scored using a modified Racine scoring system (R. J. Racine, Modification of seizure activity by electrical stimulation. II. Motor seizure. Electroencephalogr. Clin. Neurophysiol. 32, 281 (March, 1972)). Briefly, a score of 0 represents no behavior alterations; score 1, immobility, mouth and facial movements, or facial clonus; score 2, head nodding, tail extension; score 3, forelimb clonus, repetitive movements; score 4, rearing and tonic clonic seizure; and score 5, continuous rearing and falling, severe generalized tonic clonic seizure.

On to `Cn1cc(-c2ccc(Cc3cc(C(=O)NC4CCOCC4)nc4c3ccn4C)cn2)cn1` [Compound 47, 1-methyl-4-[[6-(1-methylpyrazol-4-yl)-3-pyridyl]methyl]-N-tetrahydropyran-4-yl-pyrrolo[2,3-b]pyridine-6-carboxamide], for which, in series [1], the Kp uu at 0.25 h came to 0.32 and the Kp (in general, the ratio of the level in a tissue or fluid to that in plasma or blood) at 0.25 h is 0.28. In addition, on human mAChR M1, the Emax (as a rule, the greatest response seen or fitted, relative to the assay's reference) came to 83.8% and the EC50 (usually the midpoint of the concentration-response curve) was found to be 180 nM. Further, the “Adverse Effect in mice (100 mpk, i.p.)” value in the series on C57Bl/6 mice is on record as “No”.

On to `Cc1nc(-c2ccc(Cc3cc(C(=O)NC4CCOCC4)nc4c3ccn4C)cc2)co1` [Compound 53, 1-methyl-4-[[4-(2-methyloxazol-4-yl)phenyl]methyl]-N-tetrahydropyran-4-yl-pyrrolo[2,3-b]pyridine-6-carboxamide], for which, in series [1], the Kp uu at 0.25 h amounted to 0.85 and the Kp at 0.25 h amounted to 0.51. On human mAChR M1, the Emax came to 86.4% and the concentration giving a half-maximal response (EC50) is 390 nM. In addition, the “Adverse Effect in mice (100 mpk, i.p.)” value with C57Bl/6 mice is “No”.

`Cn1ccc(-c2ccc(Cc3cc(C(=O)N[C@H]4CC[C@@H]4O)nc4c3ccn4C)cn2)n1` [Compound 156, N-[(1S,2S)-2-hydroxycyclobutyl]-1-methyl-4-[[6-(1-methylpyrazol-3-yl)-3-pyridyl]methyl]pyrrolo[2,3-b]pyridine-6-carboxamide]: on human mAChR M1, the Emax was 74.2% and the half-maximal effective concentration (EC50) stood at 920 nM.

For the compound `CC(NC(=O)c1cc(Cc2ccc(-c3ccn(C)n3)nc2)c2ccn(C)c2n1)C1CCCO1` (stereo not shown) [Compound 157, 1-methyl-4-[[6-(1-methylpyrazol-3-yl)-3-pyridyl]methyl]-N-(1-tetrahydrofuran-2-ylethyl)pyrrolo[2,3-b]pyridine-6-carboxamide], on human mAChR M1, the Emax worked out at 72.7% and the EC50 was 1270 nM.

On to `Cn1ccc(-c2ccc(Cc3cc(C(=O)NC[C@@H]4CCCO4)nc4c3ccn4C)cn2)n1` [Compound 158, 1-methyl-4-[[6-(1-methylpyrazol-3-yl)-3-pyridyl]methyl]-N-[[(2S)-tetrahydrofuran-2-yl]methyl]pyrrolo[2,3-b]pyridine-6-carboxamide], for which, on human mAChR M1, the Emax was 72.1% and the EC50 is 360 nM.
